Converted amounts (≈) assume the structure as drawn.
Experiments:
Mycolicibacterium vaccae = assay: Antimycobacterial activity against Mycobacterium vaccae (JMRC:STI:10670) assessed as reduction in bacterial growth incubated for 42 hrs by serial dilution method; format: functional
[1] = Cytotoxicity against human HeLa cells assessed as reduction in cell viability incubated for 72 hrs by methylene blue staining based colorimetric assay; format: toxicity
[2] = Mycolicibacterium vaccae, JMRC:STI:10670, read-out: MIC

| SMILES | MIC (Mycolicibacterium vaccae; [2]) [µM] | CC50 at 72 h [1] [µM] | MIC (Mycolicibacterium vaccae) |
| --- | --- | --- | --- |
| N#Cc1cccc(N2CCN(c3nc(=O)c4cc(C(F)(F)F)cc([N+](=O)[O-])c4s3)CC2)c1 | 0.0347 (≈ 0.016 µg/mL) | > 108 |  |
| CN(c1ccc(O)cc1)c1nc(=O)c2cc(C(F)(F)F)cc([N+](=O)[O-])c2s1 | 126 (≈ 50.1 µg/mL) |  |  |
| O=c1nc(N2CC[C@](O)(c3ccccc3)[C@@H](O)C2)sc2c([N+](=O)[O-])cc(C(F)(F)F)cc12 | 0.0267 (≈ 0.0125 µg/mL) | 73 |  |
| O=c1nc(N2CCN(CCCC3(c4ccc(F)cc4)OCCO3)CC2)sc2c([N+](=O)[O-])cc(C(F)(F)F)cc12 | 0.141 (≈ 0.0802 µg/mL) |  |  |
| CN(CCO)c1nc(=O)c2cc(C(F)(F)F)cc([N+](=O)[O-])c2s1 | 0.0716 (≈ 0.025 µg/mL) | 80.2 |  |
| O=c1nc(Nc2ccc3[nH]ncc3c2)sc2c([N+](=O)[O-])cc(C(F)(F)F)cc12 | 61.4 (≈ 25 µg/mL) |  |  |
| O=c1nc(N2CCN(CC(F)(F)c3ccc(OC(F)(F)F)cc3)CC2)sc2c([N+](=O)[O-])cc(C(F)(F)F)cc12 | 0.0027 (≈ 0.00158 µg/mL) | > 86 |  |
| CN(CC(F)(F)CO)c1nc(=O)c2cc(C(F)(F)F)cc([N+](=O)[O-])c2s1 | 0.0626 (≈ 0.025 µg/mL) | 109 |  |
| O=C(CN1CCN(c2nc(=O)c3cc(C(F)(F)F)cc([N+](=O)[O-])c3s2)CC1)NCc1ccccc1 | 0.0985 (≈ 0.05 µg/mL) | 57.1 |  |
| O=c1nc(N2CCn3cc(-c4ccc(F)cc4F)nc3C2)sc2c([N+](=O)[O-])cc(C(F)(F)F)cc12 | 0.196 (≈ 0.0998 µg/mL) |  |  |
| O=c1nc(N2CC[C@@](O)(COc3ccc(F)cc3)[C@H](O)C2)sc2c([N+](=O)[O-])cc(C(F)(F)F)cc12 | 0.0485 (≈ 0.025 µg/mL) | 18.4 |  |
| CN1CCN(C(=O)C(F)(F)C(F)(F)C(=O)N2CCN(c3nc(=O)c4cc(C(F)(F)F)cc([N+](=O)[O-])c4s3)CC2)CC1 | 0.0407 (≈ 0.025 µg/mL) | > 81.4 |  |
| CN(CCCCCCO)c1nc(=O)c2cc(C(F)(F)F)cc([N+](=O)[O-])c2s1 | 0.0308 (≈ 0.0125 µg/mL) | 101 |  |
| O=c1nc(N2CC[C@](O)(c3ccc(F)cc3)[C@@H](O)C2)sc2c([N+](=O)[O-])cc(C(F)(F)F)cc12 | 0.0515 (≈ 0.025 µg/mL) | 73.3 |  |
| O=c1nc(N2CCn3cc(-c4ccc(OC(F)(F)F)cc4)nc3C2)sc2c([N+](=O)[O-])cc(C(F)(F)F)cc12 | 1.4 (≈ 0.78 µg/mL) |  |  |
| O=c1nc(N2CCN(CC(F)(F)c3ccccc3)CC2)sc2c([N+](=O)[O-])cc(C(F)(F)F)cc12 | 0.016 (≈ 0.00801 µg/mL) | > 100 |  |
| O=c1nc(N2CC[C@@H](c3ccc(F)cc3)[C@H](CO)C2)sc2c([N+](=O)[O-])cc(C(F)(F)F)cc12 | 0.0128 (≈ 0.00619 µg/mL) | 35.8 |  |
| O=c1nc(N2CCn3nncc3C2)sc2c([N+](=O)[O-])cc(C(F)(F)F)cc12 | 31.4 (≈ 12.5 µg/mL) |  |  |
| O=c1nc(N2CCC(Oc3ccc(OC(F)(F)F)cc3)CC2)sc2c([N+](=O)[O-])cc(C(F)(F)F)cc12 | 0.0579 (≈ 0.031 µg/mL) | > 93 |  |

| SMILES | MIC (Mycolicibacterium vaccae; [2]) [µM] | CC50 at 72 h [1] [µM] | MIC (Mycolicibacterium vaccae) |
| --- | --- | --- | --- |
| O=c1nc(Nc2ccc(CO)cc2)sc2c([N+](=O)[O-])cc(C(F)(F)F)cc12 |  |  | 16 10^3nM |
| Cc1ccc([C@@]2(O)CCN(c3nc(=O)c4cc(C(F)(F)F)cc([N+](=O)[O-])c4s3)C2)cc1 | 0.0554 (≈ 0.025 µg/mL) | > 111 |  |
| O=c1nc(N2Cc3[nH]nc(-c4ccccc4)c3C2)sc2c([N+](=O)[O-])cc(C(F)(F)F)cc12 | 13.6 (≈ 6.25 µg/mL) |  |  |
| Cn1c(-c2ccccc2)nc2c1CCN(c1nc(=O)c3cc(C(F)(F)F)cc([N+](=O)[O-])c3s1)C2 | 0.41 (≈ 0.2 µg/mL) |  |  |
| O=C(CN1CCN(c2nc(=O)c3cc(C(F)(F)F)cc([N+](=O)[O-])c3s2)CC1)Nc1ccccn1 | 0.0506 (≈ 0.025 µg/mL) | 44.5 |  |
| O=c1nc(N2CCN(c3ccc(O)cc3)CC2)sc2c([N+](=O)[O-])cc(C(F)(F)F)cc12 | 1.72 (≈ 0.778 µg/mL) |  |  |
| CN1CCN(C(=O)C(F)(F)C(F)(F)C(F)(F)C(=O)N2CCN(c3nc(=O)c4cc(C(F)(F)F)cc([N+](=O)[O-])c4s3)CC2)CC1 | 0.0376 (≈ 0.025 µg/mL) | > 75.2 |  |
| CC(=O)c1ccc(N2CCN(c3nc(=O)c4cc(C(F)(F)F)cc([N+](=O)[O-])c4s3)CC2)cc1 | 0.13 (≈ 0.0622 µg/mL) | > 105 |  |
| CN(CCCO)c1nc(=O)c2cc(C(F)(F)F)cc([N+](=O)[O-])c2s1 | 0.0716 (≈ 0.026 µg/mL) | 103 |  |
| O=c1nc(N2CCNCC2)sc2c([N+](=O)[O-])cc(C(F)(F)F)cc12 | 17.3 (≈ 6.23 µg/mL) |  |  |
| O=c1nc(N2CCc3[nH]nc(-c4ccccc4)c3C2)sc2c([N+](=O)[O-])cc(C(F)(F)F)cc12 |  |  | 6.6 10^3nM |
| O=c1nc(N2CCN(Cc3ccncc3)CC2)sc2c([N+](=O)[O-])cc(C(F)(F)F)cc12 | 0.0687 (≈ 0.031 µg/mL) | > 111 |  |
| O=c1nc(N2CCc3[nH]c(-c4ccccc4)nc3C2)sc2c([N+](=O)[O-])cc(C(F)(F)F)cc12 | 52.8 (≈ 25 µg/mL) |  |  |
| CCCCN(Cc1ccccc1)c1nc(=O)c2cc(C(F)(F)F)cc([N+](=O)[O-])c2s1 | 0.0286 (≈ 0.0125 µg/mL) | > 114 |  |
| O=c1nc(N2CCn3cc(-c4ccc(F)c(F)c4)nc3C2)sc2c([N+](=O)[O-])cc(C(F)(F)F)cc12 | 0.0491 (≈ 0.025 µg/mL) |  |  |
| CN(c1ccc2[nH]ncc2c1)c1nc(=O)c2cc(C(F)(F)F)cc([N+](=O)[O-])c2s1 | 0.949 (≈ 0.4 µg/mL) |  |  |
| O=c1nc(N2CCn3c(-c4ccccc4)cnc3C2)sc2c([N+](=O)[O-])cc(C(F)(F)F)cc12 | 0.0131 (≈ 0.0062 µg/mL) |  |  |
| CC(C)n1c2c([n+](C)c1-c1ccccc1)CN(c1nc(=O)c3cc(C(F)(F)F)cc([N+](=O)[O-])c3s1)C2 | 0.0477 |  |  |

Reference: ChEMBL document CHEMBL5154901, “Development of Predictive Classification Models for Whole Cell Antimycobacterial Activity of Benzothiazinones” (J Med Chem, 2022)
